According to patent US6552053B2, “Controlling attention and memory by altering neuronal carbonic anhydrase activity” (The United States of America as represented by the …, priority 2000, dated 2003):
Entries after “also recorded” stand apart in the source; their conditions may differ. Where a name gives a salt, the structure may show the parent alone.

What was measured:
[1] = tested on: BAS-CA1 synapses of CA1 pyramidal cells; assay: BAS-CA1 postsynaptic potentials of CA1 pyramidal cells (Example 2); format: cell-based, rat; details: for effect of ACET itself on BAS-CA1 IPSPs / effect on CE action on the synaptic response: ACET 10 μM; for increase in evoked BAS-CA1 IPSPs: agent injected into the recorded pyramidal cell; for effect on CE action on BAS-CA1 PSP: agent injected into the recorded pyramidal cell before/with CE
Method: Chemicals. Cloned CE (without the C-terminal P-loop) containing a His9 leader sequence was expressed in BL21 (DE3) Escherichia coli cells and purified by repeated affinity chromatography on Ni^2+-charged His-Bind columns (Novagen). […] Heat-inactivated proteins (100° C. for 5 min) were used as control.
Electrophysiology. […] CA1 pyramidal cells were recorded intracellularly with sharp electrodes. Intracellular microelectrode recording rather than whole-cell clamp avoids immediate internal perfusion of the test proteins and agents into the cells and marked run-down of γ-aminobutyrate (GABA)-evoked currents. […] A bipolar stimulating electrode (Teflon-insulated PtIr wire 25 μm in diameter) was also placed in the stratum pyramidale, within 200 μm from the recording electrode, for stimulation of basket interneurons (BAS) (50 μA). In some experiments, an additional bipolar electrode was placed in the stratum radiatum to stimulate the Schaffer collateral pathway (SCH). CA1 neurons with stable resting membrane potential more negative than −70 mV were studied. […] Signals were amplified with AxoClamp-2B amplifier and digitized and stored by using a DigiData 1200 with the PCLAMP6 data collection and analysis software (Axon Instruments) and a Pentium PC computer. Experiments in which >20% variations in the evoked inhibitory postsynaptic potentials (IPSPs) during a 10 min control period occurred were discarded. Percent baseline PSP at each minute was calculated by dividing its value by baseline PSP then multiplying the result by 100. Baseline PSP was the mean of 10 min before treatments in each cell. A negative sign was added to indicate its inhibitory nature so that −100% is baseline IPSP and a positive value indicates an excitatory response. Differences were considered significant at P<0.05.

[2] = Morris watermaze spatial memory task
[3] = tested on: GABAergic inputs to hippocampal CA1 pyramidal cells; assay: Evoked GABAergic postsynaptic responses (IPSPs) of CA1 pyramidal cells; format: cell-based, rat
Method: (§1) Hippocampal slice electrophysiology. CA1 field potentials were recorded with glass microelectrodes filled with an artificial cerebrospinal fluid solution (ACSF; see below). […] Whole slices were used unless otherwise indicated. […] Signals were amplified with AxoClamp-2B amplifier, digitized, stored, and analyzed using DigiData 1200 with P-Clamp6 software (Axon Instruments). Frequency and amplitude values of oscillation were taken from an average of five consecutive traces, all triggered at the same level of the same phase. Capacitance was optimally adjusted during discontinuous current-clamp mode before and after cell penetration to neutralize capacitance and reduce overshoot/undershoot errors. Discontinuous single-electrode voltage-clamp mode was used for voltage-clamping, employing a sampling rate of 3.0-5.0 kHz (30% duty cycle). Gain was usually set at 6-8 nA·mV^−1, slightly below the maximum value without causing overshoot or instability in the step response to a repetitive 10 mV step command. Bipolar stimulating electrodes (Teflon-insulated PtIr wire with 25 μm in diameter) were placed in s. pyramidale, within 200 μm, from the recording electrode, for stimulation of interneurons (50 μA, 50 μA) in the pyramidale layer. In some cases, the position of the stimulating electrodes was slightly varied within the CA1 cell layer to obtain monophasic postsynaptic responses. […] In some experiments, an additional stimulating electrode was placed in the stratum radiatum to stimulate the Schaffer collateral pathway (Sch). Experiments in which >20% variations in the evoked IPSP magnitudes occurred during the 10-min control period were discarded.

[4] = rat, intraperitoneal dose; cited from earlier work
[5] = tested on: hippocampal CA1 pyramidal cells; assay: Intracellular recording of CA1 pyramidal cells: membrane potential θ, discharge, input resistance; format: cell-based, rat
Method: as §1

[6] = tested on: hippocampal CA1 field potential; assay: CA1 field potential θ oscillation in hippocampal slices; format: cell-based, rat
Method: as §1

[7] = tested on: SCH-CA1 excitatory postsynaptic potentials; assay: Schaffer collateral (SCH)-CA1 excitatory postsynaptic potentials; format: cell-based, rat
Method: Hippocampal slice electrophysiology. CA1 field potentials were recorded with glass microelectrodes filled with an artificial cerebrospinal fluid solution (ACSF; see below). Male Sprague-Dawley rats ([…]) were decapitated, and the brains were removed and cooled rapidly in an ACSF solution (˜4° C.), bubbled continuously with 95% O2-5% CO2. Hippocampi were sliced ([…]), placed in oxygenated ACSF (in mM: 124 NaCl, 3 KCl; 1.3 MgSO4; 2.4 CaCl2; 26 NaHCO3; 1.25 NaH2PO4; and 10 glucose), and perfused (2 ml/min) with the oxygenated ACSF in an interface chamber at 30-31 ° C. Whole slices were used unless otherwise indicated. CA1 pyramidal cells were recorded intracellularly (Sun, M. -K., Nelson, T. J., Xu, H., and Alkon, D. L. Calexcitin transformation of GABAergic synapses: from excitation filter to amplifier. Proc. Natl. Acad. Sci. USA 96: 7023-7028, 1999, for cell labeling) with sharp electrodes (3M KAc; tip resistance: 60-120 M; to prevent “run-down” of GABAergic responses in whole-cell recordings due to wash out of intracellular factors). […] Signals were amplified with AxoClamp-2B amplifier, digitized, stored, and analyzed using DigiData 1200 with P-Clamp6 software (Axon Instruments). […]
Electrophysiology. […] CA1 pyramidal cells were recorded intracellularly with sharp electrodes. […]

[8] = tested on: SCH-CA1 excitatory postsynaptic potentials; details: kynurenate 500 μM (Sun et al. 1999); cited from earlier work
RyR = details: cited from earlier work
[9] = 30 min, listed as Acetazolamide
[10] = CA3 and dentate gyrus dissected away
[11] = kynurenate 500 μM, 20-30 min, CCH-induced θ

CC(=O)Nc1nnc(S(N)(=O)=O)s1 [ACET, acetazolamide]
effect on CE-induced synaptic transformation ([1]; ACET 1 μM): eliminates
BAS-CA1 IPSPs 30 min after CE injection in the presence of ACET ([1]; ACET 1 μM, 30 min, vs −100% control value): −99.2±3.5%
effect of ACET itself on BAS-CA1 IPSPs ([1]; 30 min): sufficient to transform the BAS-CA1 IPSPs
effect on CE action on the synaptic response ([1]; 30 min): abolishing effects of CE
effect of ACET itself on BAS-CA1 IPSPs [1, 9]: sufficient to maintain IPSPs
effect on CE action on the synaptic response [1, 9]: eliminating transformative effects of calexcitin
reduction in escape latency during training trials vs saline group ([2]; ACET 5 mg/0.5 ml/day ip (14-18 mg/kg), 65-70 min before first trial): strikingly smaller reduction
quadrant preference 24 h after last training trial ([2]; ACET 5 mg/0.5 ml/day ip during training): no preference to a particular quadrant
signs of discomfort or abnormal behaviors ([2]; during the experimental periods): no rats showed any apparent sign of discomfort or abnormal behaviors
memory retrieval: quadrant 4 preference vs saline control rats ([2]; single ACET injection (5 mg/0.5 ml) 24 h after last training trial of trained rats, test 65-70 min later): no significant difference
evoked IPSP in the presence of ACET and CCH ([3]; bath ACET 1 μM, CCH 50 μM): −7.7±1.0 mV
time to peak concentration in the blood [4]: ≤ 1 h
effect on calexcitin-induced intracellular θ activity [5]: did not induce; also recorded: prevented
induction of intracellular θ activity by CCH in presence of ACET [5]: nor intracellular θ activity (n=10; FIG. 4B3) was induced

O=C(O)CN(CC(=O)O)c1ccccc1OCCOc1ccccc1N(CC(=O)O)CC(=O)O [BAPTA, 1,2-bis(2-aminophenoxy)ethane-N,N,N′,N′-tetraacetic acid]
increase in evoked BAS-CA1 IPSPs [1]: 17.4%±3.9%
effect on CE action on BAS-CA1 PSP [1]: not induced; also recorded: blocking

C[N+](C)(C)CCOC(N)=O [CCH, carbachol]
GABAergic postsynaptic response after CCH ([3]; 30 min after CCH application, pre-CCH membrane potential maintained): +5.1±0.4 mV
reversal potential of GABAergic postsynaptic responses ([3]; during CCH 50 μM): −68.4±2.8 mV
response of pyramidal cells to stimulation of GABAergic inputs ([3]; in the presence of CCH, θ frequency stimulation): elicited instantly phase-locked firing of pyramidal cells
evoked GABAergic current after CCH (inward current) ([3]; voltage clamp, CCH 50 μM): 0.19±0.05 nA
CCH-induced θ activity amplitude in CA1 minislices [6, 10]: 0.73±0.04 mV
CCH-induced θ activity frequency in CA1 minislices [6, 10]: 7.7±0.9 Hz
duration of θ field potential (post-CCH recording period) ([6]; CCH 50 μM, 20 min): ~3 h
θ field potential peak amplitude ([6]; CCH 50 μM, 20 min, bath applied, whole slices): 0.75±0.03 mV
θ field potential frequency ([6]; CCH 50 μM, 20 min, whole slices): 7.8±0.8 Hz
input resistance when θ activity became evident ([5]; CCH): 79.2±1.6 MΩ
θ oscillation of membrane potential (intracellular θ) ([5]; CCH 50 μM): 7.8±1.1 mV
averaged discharge rate ([5]; CCH, 5-min observing period): 2.7±0.3 spikes/s
single-pulse SCH stimulation-evoked excitatory postsynaptic potential ([7]; CCH): not altered

O=C(O)c1cc(=O)c2ccccc2[nH]1 [KYN, kynurenic acid]
excitatory postsynaptic responses of CA1 pyramidal cells to SCH stimulation [8]: effectively abolished
BAS-CA1 IPSP in the presence of KYN ([1]; KYN 500 μM): −8.1±0.4 mV
reversal potential of BAS-CA1 PSPs in the presence of KYN ([1]; KYN 500 μM): −78.9 mV
effect on evoked BAS-CA1 IPSPs ([1]; KYN 500 μM, 20 min): does not alter
effect on evoked IPSPs ([3]; kynurenate 500 μM): not altered
θ oscillation frequency in presence of kynurenate [6, 11]: did not change
θ oscillation magnitude in presence of kynurenate [6, 11]: slightly reduced
elimination of SCH-CA1 EPSPs ([7]; KYN 500 μM, 20 min): > 90%

N.N.N.N.N.N.N.N.N.N.N.N.N.N.[Cl-].[Cl-].[Cl-].[Cl-].[Cl-].[Cl-].[O-2].[O-2].[Ru+3].[Ru+3].[Ru+4] [RR, ruthenium red]
increase in evoked BAS-CA1 IPSPs [1]: 16.3%±4.0%
effect on CE action on BAS-CA1 PSP [1]: effectively blocked
IC50 (RyR): nanomolar range

CN1[C@@H]2CC[C@H]1C[C@@H](OC(=O)C(CO)c1ccccc1)C2 (stereo partly drawn) [atropine sulfate]
effect on CCH-induced θ field activity [6]: blocked

NS(=O)(=O)c1nnc(NS(=O)(=O)c2ccccc2)s1 [benzolamide]
effect on CCH-induced reversed GABAergic responses ([3]; intracellular application of benzolamide (0.1 mM in electrode)): prevented
